Data taken from patent publication US6531636B1, “Synthetic endogenous cannabinoids analogues and uses thereof” (priority 1998, dated 2003).

Assays:
[1] = system: rats, mean arterial pressure; assay: Hypotensive effect in non-anaesthetized cannulated rats; type: in vivo; details: dose 12 mg/Kg
Procedure: To evaluate the potency of the compounds of the present invention as anti-hypertension agents, each compound was dissolved in a mixture of ethanol:emulphor:saline (1:1:18) and administered to non-anaestisized rats, cannulated through the aorta (for injection) and the jugular view (for measurements of blood pressure). […]

[2] = system: mice; assay: Analgesia, standard hot plate test in mice; type: in vivo; details: intravenous injection in tail vein
Procedure: The novel compounds prepared as described above were evaluated for their potency in […], according to the standard hot plate test, as briefly described hereinafter.
The compounds of the invention (HU-310, HU-313 and HU-314) wee dissolved in a detergent (Emulphomethanol:saline (5:5:90)) mixture and administered by intravenous injection in the tail vein of mice with an injection volume of 0.1 ml/10 g of body weight.

[3] = system: pigeons suffering from emesia caused by cisplatin; assay: Antiemetic activity, cisplatin-induced emesis in pigeons; type: in vivo; details: subcutaneous
Procedure: The compounds of the invention were also evaluated for their potency as an antiemetic agent following the procedure described by Feigenbaum et al., [Eur. J. Pharmacol. 169:159-165 (1989, wherein pigeons suffering from emesia caused by an antineoplastic drug (cisplatin) were used as the model.
Accordingly, each compound was dissolved in Emulphor (detergent):ethanol:saline (5:5:90) and administered subcutaneously to the pigeons. The injection volume was 1.0 ml/kg body weight. Reduction of vomiting with 2-O-Arachidonyl glyceryl ether (HU-310) was 50% when using 3.0 mg of the active ingredient per kg body weight.

[4] = system: female mice, arachidonic acid-induced paw swelling; assay: Arachidonic acid-induced paw edema in mice; type: in vivo; details: paw volume 30 min after arachidonic acid
Procedure: The potency of each of the compounds of the invention were evaluated for their potency to act as anti-inflammatory agents, according to the method described Calhoun W. et al., [Calhoun W. et al. Agents and Actions 21:306-309 (1987)]. In the method, water was substituted for mercury as the displacement medium. Platelet Activating Factor (PAF) (1.0 μg) or arachidonic acid (1.0 mg) dissolved in […] of a saline buffer containing 5% ethanol were injected subcutaneously into the plantar surface of the right hind paw of ether anaesthetized female mice (20-25 gr). The volume of the right foot was measured to the level of the lateral malleous by water displacement before treatment and 15 min after PAF injection or 30 min after arachidonic injection. The change in paw volume was calculated for each mouse. Table 2 presents the inhibition of archidonic acid induced paw swelling. The values obtained are measured as the increase in paw volume using a plethysmometer. The degree of swelling was expressed as the percentage in drug-treated mice compared to inhibition of paw edema from vehicle (Emulphor:ethanol:saline) treated controls (95% significance by ANOVA. N=5 mice/group). Control animals received peanut oil (50 μl).

[5] = target: T1, CB1 receptor (Rattus norvegicus, UniProt P20272); assay: Competitive inhibition of [3H]HU-243 binding to CB1, synaptosomal membranes; details: [3H]HU-243 60 pM, synaptosomal membrane protein
T1 construct: 4 μg of synaptosomal membrane protein were homogenized in 50 mM Tris-HCl; from tissue; host or cells: synaptosomal membranes (brain tissue)
Procedure: In principle, 4 μg of synaptosomal membrane protein were homogenized in 50 mM Tris-HCl, 2 mM MgCl2 and 1 mM EDTA pH 7.4 to obtain the binding mixture having a final concentration of 60 pM, with which the Ki was determined according to the assay described by Devane et al. [Devane et al. (1992) ibid.]. […] Ki values were calculated according to following known equation: Ki-IC50/(1+[L]/Kd) wherein IC50 is the concentration of a compound that will reduce a specific binding of a given radioligand by 50%; [L] is the concentration of the radioligand used in the assay and Kd is the dissociation constant for the radioligand (see also FIG. 3).

[6] = system: rabbits with chymotrypsin-induced glaucoma; assay: Antiglaucoma activity, chymotrypsin-induced stable glaucoma in rabbits; type: in vivo; details: 0.01% in aqueous solution
Description: Each compound was further evaluated for their potency as agent for treating and/or preventing glaucoma. Accordingly, stable glaucoma was induced in rabbits by injecting into the eye δ-chymotrypsin as described by Mechoulam R. et al., [Mechoulam R. et al., The Therapeutic Potential of Marihuana eds S. Cohen, R. C. Stillman Plenum Press, N.Y., pp. 35-48 (1975)]. As a control, pilocarpine, a standard antiglaucoma drug, was employed showing intraocular pressure (I.O.P.) reduction at a concentration of 0.01% in aqueous solution and provided a period of 30 hours delay in the recovery of the original chymotrypsin-induced IOP.
The compounds of the invention were each dissolved in a detergent (Emulphor:ethanol:saline (5:5:90)) mixture and then further diluted with saline to obtain the desired concentrations.

T1 sequence (P20272 whole entry): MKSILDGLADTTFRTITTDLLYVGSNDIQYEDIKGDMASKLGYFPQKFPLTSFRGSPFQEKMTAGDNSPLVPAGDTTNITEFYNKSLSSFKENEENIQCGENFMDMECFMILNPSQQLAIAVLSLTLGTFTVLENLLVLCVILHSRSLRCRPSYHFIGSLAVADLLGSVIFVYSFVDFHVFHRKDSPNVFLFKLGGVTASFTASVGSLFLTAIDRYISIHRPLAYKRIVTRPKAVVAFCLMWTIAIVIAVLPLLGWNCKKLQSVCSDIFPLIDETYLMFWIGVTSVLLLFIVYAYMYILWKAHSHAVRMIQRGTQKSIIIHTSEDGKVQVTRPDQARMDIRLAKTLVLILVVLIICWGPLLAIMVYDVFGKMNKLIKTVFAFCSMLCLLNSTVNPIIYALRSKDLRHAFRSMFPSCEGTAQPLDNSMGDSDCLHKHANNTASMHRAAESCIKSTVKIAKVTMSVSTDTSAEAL

Row | Structure (SMILES) | Latency to maximal effect [1] [min] | Maximal hypotension (difference in mean arterial pressure before and after drug) [1] [mm Hg] | Time of recovery [1] [min] | Analgesia, ED50 [2] [mg/kg] | other results
1 | CCCCC/C=C\C/C=C\C/C=C\C/C=C\CCCC(=O)OC(CO)CO [2-Ara-GL, 2-arachidonoyl glycerol] | 7.2 | 34 | 13.0 |  | 
2 | CCCCC/C=C\C/C=C\C/C=C\C/C=C\CCCC(=O)NCCO [ANA, anandamide] | 2.0 | 15 | 7.0 |  | 
3 | CCCCC/C=C\C/C=C\C/C=C\C/C=C\CCCCOC(CO)CO [HU-310, 2-O-Arachidonyl glyceryl ether] | 34.0 | 105 | 75.0 | 2.8 | Reduction of vomiting ([3]; 3.0 mg per kg body weight): 50%; Inhibition of Arachidonic Acid-induced Paw Edema ([4]; dose 5 mg/kg): 70.2%; Inhibition of Arachidonic Acid-induced Paw Edema ([4]; dose 10 mg/kg): 92.2%; Inhibition of Arachidonic Acid-induced Paw Edema ([4]; dose 25 mg/kg): 100.0%; Ki [5]: 62.3 ± 3 nM
4 | CCCCC/C=C\C/C=C\C/C=C\CCCCCCCOC(CO)CO [HU-314, 2-dihomo-γ-linolenyl glyceryl ether] |  |  |  | 4.6 | Reduction of vomiting (in words) ([3]; compared with HU-310): vomiting was also reduced, however to a lesser extent
5 | CC[C@@H]1C(=O)OC[C@@H]1Cc1cncn1C [pilocarpine] |  |  |  |  | Delay in the recovery of the original chymotrypsin-induced IOP [6]: 30 h
